Results taken from paper PMC12275099, “VX-445 (elexacaftor) inhibits chloride secretion across human bronchial epithelial cells by directly blocking KCa3.1 channels” (PNAS Nexus, 2025).
Where “and” joins values, the source holds several entries; their conditions need not be identical. Equal entries are not always repeated.

Legend:
[1] = target: T1, KCa3.1 (Homo sapiens, UniProt O15554); assay: Excised inside-out patch-clamp on HEK-KCa3.1; format: biochemical; settings: for relative remaining current: Fig 3I single experiments
T1 construct: expressed in transfected cells
Method: Our Isc results are consistent with VX-445 inhibiting KCa3.1 in HBEs. To directly assess this possibility, we initially carried out whole-cell patch-clamp studies on undifferentiated HBEs. […] Upon application of 10 µM VX-445, a majority of this current was inhibited, averaging 87 ± 4% (n = 3, P < 0.005; Fig. 3B). A summary of the current–voltage (I–V) relationship—normalized to cell capacitance—is shown in Fig. 3C, which also includes the whole-cell I–V in the presence of Tram-34. […] To ensure isolation of KCa3.1 currents and to more fully characterize this VX-445-dependent inhibition of KCa3.1, we utilized HEK cells heterologously expressing KCa3.1 (HEK-KCa3.1). Initially, we confirmed our results from HBEs, using whole-cell recordings, as above. […] In seven experiments, this inhibition averaged 58 ± 7% (P < 0.005). […] It is well recognized that drugs are carried to their targets in the blood bound to albumin, which ranges from 3.4 to 5.4%. Thus, we determined whether VX-445 (10 µM) would inhibit KCa3.1 expressed in HEK cells in the presence of 3.4% albumin. In four experiments, VX-445 inhibited an average of 51 ± 17% of the whole-cell KCa3.1 current, which is not different from that observed in the absence of albumin. To confirm the direct effect of VX-445 on KCa3.1, we utilized the excised, inside-out patch-clamp technique. The patch was then exposed to DCEBIO (100 µM) to further activate the channels ([34–37])—analogous to our Isc studies in HBEs. […] In three experiments, VX-445 inhibited an average of 63 ± 6% of the KCa3.1 current. Based on these experiments, we determined the apparent inhibitory constant, Ki for VX-445. For these experiments, patches were excised into saturating Ca^2+ (3 µM) to ensure maximal KCa3.1 activation. These studies were carried out in the absence of DCEBIO to eliminate the possibility that the inhibition observed was due to competition for the DCEBIO-binding site.
HEK cells stably expressing KCa3.1 (IK1, SK4), KCa2.3 (SK3), and KCa2.2 (SK2) were generated and cultured as previously described by us ([37], [66–71]).
HEK cells expressing the channel of interest were plated onto poly-L-lysine-coated glass coverslips 1–2 days prior to patch-clamp analysis. Electrophysiological recordings in the excised, inside-out, and whole-cell patch-clamp configurations were performed as recently described ([14]). For excised patch-clamp recordings, the pipette solution contained (in mM): 140 K-gluconate, 5 KCl, 1 CaCl2, 1 MgCl2, and 10 HEPES. The pH was adjusted to 7.2 with KOH. The bath solution contained (in mM): 145 K-gluconate, 5 KCl, 1.3 MgCl2, 10 HEPES, and 1 EGTA. Sufficient CaCl2 was added to obtain the desired free Ca^2+ concentration at a pH of 7.2 (adjusted with KOH). When recording KCa3.1 channels, ATP (300 µM) was added to the bath to diminish channel rundown ([73]). All recordings were carried out at a voltage of −100 mV, referenced to the extracellular compartment, as is standard. The apparent Ki and Hill coefficient for each CFTR corrector on KCa3.1, KCa2.3, and KCa2.2 were determined during a continuous recording by step-wise addition of increasing concentrations of compound and fitting the resultant relative remaining current to a Hill equation (Prism v. 10.1.0). The zero current level was determined by the addition of a 0 Ca^2+ solution (zero-added Ca^2+ plus 1 mM EGTA) at the end of the experiment. In the case of KCa3.1, TRAM-34, a known inhibitor of KCa3.1 ([45]), was used to confirm expression of the channel. For whole-cell experiments, pipettes contained (in mM): 145 K-gluconate, 10 EGTA, 7.5 CaCl2, 2 MgCl2, 3 mM NaATP, and 10 HEPES. The bath solution contained (in mM): 140 K-gluconate, 5 KCl, 1.0 MgCl2, 10 HEPES, and 2 CaCl2. Current–voltage relationships were determined by stepping from a holding potential of −80 mV to +80 mV in 20 mV increments for 400 ms. […]

[2] = parameters: method as in earlier work; settings: clinical trial data, converted, cited from earlier work
[3] = parameters: method as in PMID 36371965; settings: patients with CF, converted; cited from earlier work
[4] = system: BKCa (KCa1.1, KCNMA1) channels; parameters: method as in PMID 38954478; settings: primary HBEs and HEK cells heterologously expressing the channel; cited from earlier work

Cc1nn(C)cc1S(=O)(=O)NC(=O)c1ccc(-n2ccc(OCC(C)(C)C(F)(F)F)n2)nc1N1C[C@@H](C)CC1(C)C [VX-445, elexacaftor]
Hill coefficient ([1]; 3 µM free Ca2+, absence of DCEBIO): 1.2 | Ki ([1]; 3 µM free Ca2+, absence of DCEBIO, Hill fit, n = 4, read-out: apparent Ki): 8 ± 2 µM | inhibition at 10 µM ([1]; 10 µM compound after DCEBIO 100 µM, 1 µM free Ca2+, three experiments, read-out: inhibition of KCa3.1 current in excised patch): 63 ± 6% | selectivity among KCNN gene family members ([1]; KCa3.1 versus KCa2.2 and KCa2.3): exhibits selectivity for KCa3.1 over KCa2.x channels | relative remaining current ([1]; [VX-445] 0.1): 100 | relative remaining current ([1]; [VX-445] 1): 86 and 95 and 100 and 83 | relative remaining current ([1]; [VX-445] 3): 68 and 80 and 93 and 62 | minimal (Cmin) plasma concentration [2]: 6 to 9 µM | Cmax ([2]; read-out: maximal (Cmax) plasma concentration): ~15 µM | mean concentration in nasal brushing cell lysates, upper end [3]: ~9 µM | effect on BKCa [4]: act as direct potentiators
